The source of these data is patent US10039753B2, “Imidazo[4,5-c]quinoline and imidazo[4,5-c][1,5]naphthyridine derivatives as LRRK2 inhibitors” (Pfizer Inc., priority 2015, dated 2018).

Assay [1] concerns the target T1, mutant G2019S LRRK2 (Homo sapiens, UniProt Q5S007, G2019S). The assay is described as follows: LRRK2 Assay, Format 1 (Lantha Screen), G2019S mutant.
Excerpt: All final concentrations of substrate ATP and enzyme were the same.
Assay [2] concerns the target T2, GST-tagged truncated LRRK2 (Homo sapiens, UniProt Q5S007).
T2 construct: GST-tagged truncated LRRK2 from Invitrogen (Cat # PV4874); GST; purchased Invitrogen PV4874
The assay is described as follows: LRRK2 Assay, Format 1 (Lantha Screen), WT. In kind it is biochemical. Conditions: Format 1, wild-type LRRK2; geometric mean of 2-4 determinations unless footnoted (a: ≥5 determinations; b: single determination; c: determined on trifluoroacetate salt). How it is done: LRRK2 kinase activity was measured using Lantha Screen technology from Invitrogen. GST-tagged truncated LRRK2 from Invitrogen (Cat # PV4874) was incubated with a fluorescein-labeled peptide substrate based upon ezrin/radixin/moesin (ERM), also known as LRRKtide (Invitrogen cat # PR8976A), in the presence of a dose response of compound. Upon completion, the assay was stopped and detected with a terbium labeled anti-phospho-ERM antibody (Invitrogen, cat # PR8975A). […] Aliquots (3.5 μL) of the 100% DMSO dose response were mixed with 46.5 μL water then 1 μL of this mixture was added to the 3 μL substrate mix in the 384-well plate. The kinase reaction was started with 3 μL of a working solution of LRRK2 enzyme at a concentration of 4 μg/mL. […] The reaction was allowed to progress at room temperature for two hours and then stopped with the addition of 7 μL of detection buffer (20 mM Tris pH 7.6, 0.01% NP-40, 0.02% NaN3, 6 mM EDTA with 2 nM terbium labeled anti-phospho-ERM).

In assay [3] the target is T1, mutant G2019S LRRK2. In words: LRRK2 Assay, Format 2 (Lantha Screen), G2019S mutant. The assay is classed as biochemical. Set-up: purchased Invitrogen PV4881. As to conditions: geometric mean of 2-4 determinations unless otherwise indicated (a: >=5; b: single determination); read-out: LRRK2, Format 2 G2019S IC50.
Assay [4] addresses T2, GST-tagged truncated LRRK2. The assay is described as follows: LRRK2 Assay, Format 2 (Lantha Screen), WT. The assay is classed as biochemical. Conditions: geometric mean of 2-4 determinations unless otherwise indicated (a: >=5; b: single determination).

Where a name gives a salt, the structure may show the parent alone.

T2 sequence (Q5S007 970-2527 limits assumed): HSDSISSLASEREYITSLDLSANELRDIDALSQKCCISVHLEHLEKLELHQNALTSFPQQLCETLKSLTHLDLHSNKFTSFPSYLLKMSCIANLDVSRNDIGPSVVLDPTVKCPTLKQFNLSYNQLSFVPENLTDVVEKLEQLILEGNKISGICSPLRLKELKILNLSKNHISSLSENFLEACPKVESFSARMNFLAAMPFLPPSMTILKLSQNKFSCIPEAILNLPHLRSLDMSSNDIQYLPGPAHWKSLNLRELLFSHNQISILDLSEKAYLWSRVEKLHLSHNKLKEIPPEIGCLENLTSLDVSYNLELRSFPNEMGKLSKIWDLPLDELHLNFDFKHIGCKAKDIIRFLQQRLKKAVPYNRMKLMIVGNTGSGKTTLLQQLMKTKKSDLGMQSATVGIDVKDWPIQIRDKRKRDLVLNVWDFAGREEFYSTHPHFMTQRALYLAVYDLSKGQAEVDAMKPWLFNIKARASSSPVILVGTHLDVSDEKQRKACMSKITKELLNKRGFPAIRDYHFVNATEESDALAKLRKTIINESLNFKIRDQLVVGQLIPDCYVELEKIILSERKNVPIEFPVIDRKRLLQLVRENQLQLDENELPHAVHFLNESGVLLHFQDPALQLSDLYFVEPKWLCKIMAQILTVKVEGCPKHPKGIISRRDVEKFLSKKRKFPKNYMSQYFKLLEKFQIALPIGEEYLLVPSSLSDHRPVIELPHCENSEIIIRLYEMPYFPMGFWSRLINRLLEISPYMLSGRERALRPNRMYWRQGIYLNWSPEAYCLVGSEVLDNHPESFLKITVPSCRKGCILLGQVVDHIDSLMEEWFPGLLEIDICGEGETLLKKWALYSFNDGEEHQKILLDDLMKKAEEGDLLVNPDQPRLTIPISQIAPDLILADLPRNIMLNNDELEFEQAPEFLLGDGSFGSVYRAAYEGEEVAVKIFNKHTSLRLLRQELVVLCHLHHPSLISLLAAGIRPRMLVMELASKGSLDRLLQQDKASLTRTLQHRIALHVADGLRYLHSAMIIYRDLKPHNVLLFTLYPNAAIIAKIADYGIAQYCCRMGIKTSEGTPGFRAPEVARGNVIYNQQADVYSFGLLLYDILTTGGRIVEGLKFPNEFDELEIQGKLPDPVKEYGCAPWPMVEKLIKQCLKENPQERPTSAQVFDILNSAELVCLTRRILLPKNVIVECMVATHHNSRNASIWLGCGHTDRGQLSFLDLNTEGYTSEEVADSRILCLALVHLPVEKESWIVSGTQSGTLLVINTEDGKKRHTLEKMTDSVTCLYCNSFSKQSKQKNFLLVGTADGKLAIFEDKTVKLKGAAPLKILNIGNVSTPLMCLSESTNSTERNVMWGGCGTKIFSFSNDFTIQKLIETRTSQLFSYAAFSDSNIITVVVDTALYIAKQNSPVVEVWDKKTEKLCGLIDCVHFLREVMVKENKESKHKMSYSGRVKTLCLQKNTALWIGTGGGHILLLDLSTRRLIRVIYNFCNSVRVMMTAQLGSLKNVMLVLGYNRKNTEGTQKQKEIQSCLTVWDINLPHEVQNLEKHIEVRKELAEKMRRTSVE
T1 sequence (Q5S007 970-2527 G2019S limits assumed): as the sequence (Q5S007 970-2527 limits assumed) above, with G1050S counted along it

The term IC50 denotes the concentration that inhibits the measured activity by half. As for `Cc1nc2cnc3ccccc3c2n1[C@H]1CCO[C@@H](C)C1` (racemic) [Example 15, 2-methyl-1-(cis-2-methyltetrahydro-2H-pyran-4-yl)-1H-imidazo[4,5-c]quinoline], the IC50 amounted to 257 nM against mutant G2019S LRRK2 [1] and 187 nM in assay [2].

On to `Cc1nc2cnc3ccc(C#N)cc3c2n1[C@H]1CCO[C@@H](C)C1` (racemic) [Example 19, 2-methyl-1-(cis-2-methyltetrahydro-2H-pyran-4-yl)-1H-imidazo[4,5-c]quinoline-8-carbonitrile], for which the IC50 at mutant G2019S LRRK2 [1] was determined as 55.5 nM; in assay [2], 81 nM.

Turning to `C[C@H]1C[C@@H](n2c(Cc3ccon3)nc3cnc4ccc(C#N)cc4c32)CCO1` (racemic) [Example 21, 1-(cis-2-methyltetrahydro-2H-pyran-4-yl)-2-(1,2-oxazol-3-ylmethyl)-1H-imidazo[4,5-c]quinoline-8-carbonitrile], the IC50 at mutant G2019S LRRK2 [1] was found to be 4.5 nM; in assay [2], 7.5 nM.

On to `C[C@@H]1C[C@@H](n2c(Cc3ccon3)nc3cnc4ccc(C#N)cc4c32)CCO1` (racemic) [Example 23, 1-(trans-2-methyltetrahydro-2H-pyran-4-yl)-2-(1,2-oxazol-3-ylmethyl)-1H-imidazo[4,5-c]quinoline-8-carbonitrile], for which the IC50 amounted to 153 nM on mutant G2019S LRRK2 [1] and 199 nM in assay [2].

Turning to `O[C@@H]1CCC[C@@H](n2c(Cc3ccon3)nc3cnc4ccccc4c32)C1` (racemic) [Example 49, trans-3-[2-(1,2-oxazol-3-ylmethyl)-1H-imidazo[4,5-c]quinolin-1-yl]cyclohexanol], the IC50 at mutant G2019S LRRK2 [1] turned out to be 81.2 nM; in assay [2], 152 nM.

For `C[C@H]1C[C@@H](n2c(Cc3cscn3)nc3cnc4ccc(Br)cc4c32)CCO1` (racemic) [Example 56, 8-bromo-1-(cis-2-methyltetrahydro-2H-pyran-4-yl)-2-(1,3-thiazol-4-ylmethyl)-1H-imidazo[4,5-c]quinoline], the IC50 against mutant G2019S LRRK2 [1] was 5.2 nM; in assay [2] it was 10 nM.

On to `Cc1cc(Cc2nc3cnc4ccc(Br)cc4c3n2[C@H]2CCO[C@@H](C)C2)no1` (racemic) [Example 58, 8-bromo-2-[(5-methyl-1,2-oxazol-3-yl)methyl]-1-(cis-2-methyltetrahydro-2H-pyran-4-yl)-1H-imidazo[4,5-c]quinoline], for which the IC50 was 8.2 nM against mutant G2019S LRRK2 [1] and 16.8 nM in assay [2].

On to `CC[C@H]1C[C@@H](n2c(Cc3ccon3)nc3cnc4ccc(Br)cc4c32)CCO1` (racemic) [Example 66, 8-bromo-1-(cis-2-ethyltetrahydro-2H-pyran-4-yl)-2-(1,2-oxazol-3-ylmethyl)-1H-imidazo[4,5-c]quinoline], for which the IC50 against mutant G2019S LRRK2 [1] came out at 16.4 nM; in assay [2], 32.5 nM.

Turning to `C[C@H]1C[C@@H](n2c(Cc3cn4ncsc4n3)nc3cnc4ccc(F)cc4c32)CCO1` (racemic) [Example 86, 8-fluoro-2-(imidazo[2,1-b][1,3,4]thiadiazol-6-ylmethyl)-1-(cis-2-methyltetrahydro-2H-pyran-4-yl)-1H-imidazo[4,5-c]quinoline], the figures for the IC50 (on mutant G2019S LRRK2 [1]; in assay [2]) were 5.6 nM and 7.6 nM, respectively.

With `Cc1nc2cnc3ccccc3c2n1[C@H]1CCO[C@@H](CC#N)C1` (racemic) [Example 91, [cis-4-(2-methyl-1H-imidazo[4,5-c]quinolin-1-yl)tetrahydro-2H-pyran-2-yl]acetonitrile], the IC50 against mutant G2019S LRRK2 [1] came to 12.2 nM; in assay [2], 18.7 nM.

With `COc1ccc2ncc3nc(Cc4cc(C)on4)n([C@@H]4CCO[C@H](C)C4)c3c2c1` (single isomer, unassigned) [Example 1], the IC50 was found to be 14.4 nM at mutant G2019S LRRK2 [1] and 39.3 nM in assay [2].

As for `Cc1ccn(Cc2nc3cnc4ccc(C#N)cc4c3n2[C@@H]2CCO[C@H](C)C2)n1` [Example 233, 2-[(3-methyl-1H-pyrazol-1-yl)methyl]-1-[(2R,4R)-2-methyltetrahydro-2H-pyran-4-yl]-1H-imidazo[4,5-c]quinoline-8-carbonitrile, formate salt], the IC50 at mutant G2019S LRRK2 [3] was determined as 11.9 nM; in assay [4] it was 14.3 nM.

With `Cc1nc(Cc2nc3cnc4ccc(C#N)cc4c3n2[C@@H]2CCO[C@H](C)C2)cs1` [Example 234, 1-[(2R,4R)-2-methyltetrahydro-2H-pyran-4-yl]-2-[(2-methyl-1,3-thiazol-4-yl)methyl]-1H-imidazo[4,5-c]quinoline-8-carbonitrile, formate salt], the IC50 is 9.5 nM on mutant G2019S LRRK2 [3] and 10.7 nM in assay [4].

Take `C[C@@H]1C[C@H](n2c(Cc3cn(C)cn3)nc3cnc4ccc(C#N)cc4c32)CCO1` [Example 235, 2-[(1-methyl-1H-imidazol-4-yl)methyl]-1-[(2R,4R)-2-methyltetrahydro-2H-pyran-4-yl]-1H-imidazo[4,5-c]quinoline-8-carbonitrile, formate salt]: the IC50 stood at 9.43 nM on mutant G2019S LRRK2 [3] and 10.6 nM in assay [4].

With `C[C@@H]1C[C@H](n2c(C(F)(F)c3ccccn3)nc3cnc4ccc(C#N)cc4c32)CCO1` [Example 236, 2-[difluoro(pyridin-2-yl)methyl]-1-[(2R,4R)-2-methyltetrahydro-2H-pyran-4-yl]-1H-imidazo[4,5-c]quinoline-8-carbonitrile, formate salt], the values for the IC50 (at mutant G2019S LRRK2 [3]; in assay [4]) were 11.9 nM and 13 nM, respectively.

Take `Cc1cc(Cc2nc3cnc4ccc(C#N)cc4c3n2C2CCOC(C)(C)C2)no1` (centres unmarked) [Example 239, 1-(2,2-dimethyltetrahydro-2H-pyran-4-yl)-2-[(5-methyl-1,2-oxazol-3-yl)methyl]-1H-imidazo[4,5-c]quinoline-8-carbonitrile, formate salt]: the IC50 turned out to be 10.8 nM at mutant G2019S LRRK2 [3] and 9.74 nM in assay [4].

Consider `Cc1cc(Cc2nc3cnc4ccc(C#N)cc4c3n2[C@H]2CC[C@H](O)CC2)no1` [Example 240, 1-(trans-4-hydroxycyclohexyl)-2-[(5-methyl-1,2-oxazol-3-yl)methyl]-1H-imidazo[4,5-c]quinoline-8-carbonitrile, formate salt], for which the IC50 at mutant G2019S LRRK2 [3] is 35.7 nM; in assay [4] it was 51.8 nM.

On to `Cc1cc(Cc2nc3cnc4ccc(C#N)cc4c3n2[C@H]2CC[C@@H](F)C2)no1` [Example 241, 1-[(1S,3R)-3-fluorocyclopentyl]-2-[(5-methyl-1,2-oxazol-3-yl)methyl]-1H-imidazo[4,5-c]quinoline-8-carbonitrile, formate salt], for which the IC50 on mutant G2019S LRRK2 [3] is 33.5 nM; in assay [4] it was 29.3 nM.

On to `Cc1cc(Cc2nc3cnc4ccc(C#N)cc4c3n2[C@@H](C)CF)no1` [Example 243, 1-[(2S)-1-fluoropropan-2-yl]-2-[(5-methyl-1,2-oxazol-3-yl)methyl]-1H-imidazo[4,5-c]quinoline-8-carbonitrile, formate salt], for which the IC50 at mutant G2019S LRRK2 [3] was 85.9 nM; in assay [4], 48.7 nM.

As to `Cc1cc(Cc2nc3cnc4ccc(C#N)cc4c3n2C2CCCC(F)(F)C2)no1` (centres unmarked) [Example 244, 1-(3,3-difluorocyclohexyl)-2-[(5-methyl-1,2-oxazol-3-yl)methyl]-1H-imidazo[4,5-c]quinoline-8-carbonitrile, formate salt], the results for the IC50 (on mutant G2019S LRRK2 [3]; in assay [4]) were 89.7 nM and 79.4 nM, respectively.

On to `Cc1cc(Cc2nc3cnc4ccc(C#N)cc4c3n2C2CCC(F)(F)C2)no1` (centres unmarked) [Example 246, 1-(3,3-difluorocyclopentyl)-2-[(5-methyl-1,2-oxazol-3-yl)methyl]-1H-imidazo[4,5-c]quinoline-8-carbonitrile, formate salt], for which the half-maximal inhibitory concentration (IC50) at mutant G2019S LRRK2 [3] turned out to be 86.5 nM; in assay [4], 65 nM.

Consider `Cc1cc(Cc2nc3cnc4ccc(C#N)cc4c3n2[C@H]2CC[C@](C)(O)CC2)no1` [Example 247, 1-(trans-4-hydroxy-4-methylcyclohexyl)-2-[(5-methyl-1,2-oxazol-3-yl)methyl]-1H-imidazo[4,5-c]quinoline-8-carbonitrile, formate salt], for which the IC50 at mutant G2019S LRRK2 [3] came out at 59.5 nM; in assay [4], 85.1 nM.

In the case of `Cc1cc(Cc2nc3cnc4ccc(C#N)cc4c3n2CC(C)(F)F)no1` [Example 248, 1-(2,2-difluoropropyl)-2-[(5-methyl-1,2-oxazol-3-yl)methyl]-1H-imidazo[4,5-c]quinoline-8-carbonitrile], the IC50 came to 17.7 nM at mutant G2019S LRRK2 [3] and 15 nM in assay [4].

As for `C[C@@H]1C[C@H](n2c(Cc3cnccn3)nc3cnc4ccc(Cl)cc4c32)CCO1` [Example 249, 8-chloro-1-[(2R,4R)-2-methyltetrahydro-2H-pyran-4-yl]-2-(pyrazin-2-ylmethyl)-1H-imidazo[4,5-c]quinoline, trifluoroacetate salt], the IC50 on mutant G2019S LRRK2 [3] was 18.6 nM; in assay [4], 16.9 nM.

As to `C[C@@H]1C[C@H](n2c(Cc3ccccn3)nc3cnc4ccc(Cl)cc4c32)CCO1` [Example 250, 8-chloro-1-[(2R,4R)-2-methyltetrahydro-2H-pyran-4-yl]-2-(pyridin-2-ylmethyl)-1H-imidazo[4,5-c]quinoline, formate salt], the IC50 on mutant G2019S LRRK2 [3] came out at 11 nM; in assay [4], 10.4 nM.
